This is an account of results in US11033537B2, “LPT-723 and immune checkpoint inhibitor combinations and methods of treatment” (BIOMED VALLEY DISCOVERIES, INC., priority 2015, dated 2021).

“Also recorded” adds a separate entry of the source.

Series [1] has as its system Colon26 murine colon cancer cells. Description: Prophylactic Colon26 colon cancer model. The format is in vivo, BALB/c mice. As to conditions: alone or with antibody. The protocol:
Charles River (CR) BALB/c mice were implanted with Colon26 murine colon cancer cells on Day 1, and treatment was initiated on Day 3 with control (vehicle), anti-CTLA-4 (clone 4F10), anti-PD-1 (clone RMP1-14), anti-CTLA-4/anti-PD-1 combination, LPT-723 (10 mpk, 30 mpk), anti-CTLA-4/LPT-723 (10 mpk, 30 mpk) combination, or anti-PD-1/LPT-723 (10 mpk, 30 mpk) combination. Anti-CTLA-4 was dosed i.p. on Day 8 at a dose of 100 μg/animal and on Days 11, and 14 at a dose of 50 μg/animal. Anti-PD-1 was dosed i.p. twice a week for two weeks starting on Day 3 at a dose of 100 μg/animal. LPT-723 was dosed per os (p.o.) twice a day starting on Day 3.

The nature of series [2]: Micronucleus assay (flow analysis, 7-day oral toxicity study). The format is in vivo. Particulars: rat blood, Day 8 of 7-day oral study. As for the experimental part:
Prior to necropsy on Day 8, rats in a main study group of a 7-day oral toxicity and toxicokinetic (TK) study were bled from the jugular vein for the evaluation of the flow analysis of micronucleus. […] The procedure used for collection and fixation of blood is summarized below:
Preparation of the Fixative Tubes: Fixative tubes were prepared one day prior to blood collection. Two 15 mL polypropylene centrifuge tubes (VWR no. 21008-103) were required per sample. 2 mL of ultracold fixative-methanol was added to each appropriately labeled tube (Tubes B1 and B2), and caps were replaced. The rack of tubes was placed overnight at approximately −80° C. to allow for sufficient chilling of the fixative.
Preparation of the Anticoagulant/Diluent Vials (prior to blood collection): One vial (2 mL cryovials; VWR no. 66008-728) was required for each sample. 350 μL of anticoagulant/diluent (Prototype Pig-a Mutation Assay Anticoagulant Solution, lot #17716, provided by BioReliance, from Litron) was aseptically aliquoted into each appropriately labeled vial (Tube A). […]
Transferring of Fixed Samples into LTSS: Samples were transferred into LTSS after they had been in the fixative for at least 3 days. […] With a container of ice and a 25 mL pipette ready for aliquoting the buffer solution used below, the following steps were performed as quickly as possible (within approximately 20 seconds). […]

Series [3] in a line: Mouse 7-day dose range finding study. The class given is in vivo. Particulars: 7 days. The protocol: Preparation of Test and Control/Vehicle Items: Vehicle is 2% TPGS/1.5% HPMCAS-HF/1.5% PVP-VA with 50 mM sodium citrate (pH 5.0) in deionized water. LPT-723 is a spray dried dispersion (SDD) containing 25% active and 75% HPMCAS-HF polymer. Test and vehicle items were stored at room temperature, protected from light, and desiccated. Dose formulation was prepared daily. Unless indicated otherwise, LPT-723 was mixed with vehicle to achieve the desired concentrations, using appropriate mixing equipment to achieve homogenous formulations.
The LPT-723 and vehicle were administered once per day for 7 consecutive days. Doses were administered at approximately the same time (±2 hours) throughout the duration of the study. All main study animals were submitted for necropsy on Day 8 (the day following the final dose).

The subject of another series is Pan02 cells. The series is described as follows: In vitro cell viability assay (CellTiter-Glo), Pan02. The format is cell-based, murine. Particulars: Mus musculus. An excerpt:
No significant changes in body weights were noted.
On the technique in general: ATP-based viability assays read luminescence as a measure of living cells.

The term IC50 denotes the concentration that inhibits the measured activity by half. Read a low IC50 as greater potency.

Regarding `Cc1cc(-c2cncc(C(O)C(F)(F)F)c2)nc2c1C(=O)N(c1cnn(CC(F)F)c1)C2(C)C` (centres unmarked) [LPT-723], in series [1] (MR237 10 mg/kg bid), the “% TGD” value is 0%, the T-C is on record as −0 and the TFS turned out to be 0. Also, the “Median TTE” value in series [1] (MR237 10 mg/kg p.o. bid from Day 3 to end) was found to be 31.9. Further, in series [1] (MR237 30 mg/kg bid), the “% TGD” value came out at 5%, the T-C was 1.7 and the TFS is 1. The “MTV (n), Day 57” value in series [1] (MR237 30 mg/kg bid, Day 57) is listed as 0 (1). The “Median TTE” value in series [1] (MR237 30 mg/kg p.o. bid from Day 3 to end) is listed as 33.7. Further, in series [2], the “toxicity, micronucleus flow analysis” value was “No toxicity was observed; also recorded: no significant toxicity”. Moreover, in series [3] (mouse, 15, 35, 70 mg/kg/day), the tolerability result was “well tolerated”. Moreover, in series [3] (mouse), the “clinical signs and histopathology” value was “no clinical signs or histopatholoy findings”; the “lymphocyte and monocyte counts” value was “decrease in lymphocyte and monocyte counts”. In the series on Pan02 cells, this molecule had an IC50 of 26.6 µM.
